Laboratory results taken from patent US8906825B2, “Herbicidal compositions comprising 4-amino-3-chloro-5-fluoro-6-(4-chloro-2-fluoro-3-methoxyphenyl) pyridine-2-carboxylic acid or a derivative thereof and triazolopyrimidine sulfonamides” (Dow AgroSciences LLC, priority 2012, dated 2014).

Experiments:
Assay type in all cases: in vivo
[1] = system: ECHCG (Echinochloa crusgalli (L.) Beauv., barnyardgrass); assay: Postemergence foliar-applied herbicidal mixtures, direct seeded rice, greenhouse (Example I)
Text: (§1) Seeds or nutlets of the desired test plant species were planted in a soil matrix prepared by mixing a loam or sandy loam soil (e.g., 28.6 percent silt, 18.8 percent clay, and 52.6 percent sand, with a pH of about 5.8 and an organic matter content of about 1.8 percent) and calcareous grit in an 80 to 20 ratio. The soil matrix was contained in plastic pots with a volume of 1 quart and a surface area of 83.6 square centimeters (cm^2). When required to ensure good germination and healthy plants, a fungicide treatment and/or other chemical or physical treatment was applied. The plants were grown for 8-22 days in a greenhouse with an approximate 14 h photoperiod which was maintained at about 29° C. during the day and about 26° C. during the night. Nutrients (Peters Excel® 15-5-15 5-Ca 2-Mg and iron chelate) were applied in the irrigation solution as needed and water was added on a regular basis. Supplemental lighting was provided with overhead metal halide 1000-Watt lamps as necessary. The plants were employed for testing when they reached the first through fourth true leaf stage.
(§2) Treatments consisted of the acid or esters of 4-amino-3-chloro-5-fluoro-6-(4-chloro-2-fluoro-3-methoxy-phenyl)pyridine-2-carboxylic acid (Compound A), each formulated as an SC (suspension concentrate), and various herbicidal components alone and in combination. Forms of compound A were applied on an acid equivalent basis.
(§3) Other herbicidal components were applied on an active ingredient basis and included acetolactate synthase (ALS)-inhibiting herbicides (sulfonamide chemical class) penoxsulam formulated as Grasp® SC, diclosulam formulated as Strongarm®, and cloransulam-methyl formulated as FirstRate®, flumetsulam formulated as Flumetsulam WG, and metosulam formulated as Eclipse®.
(§4) Treatment requirements were calculated based upon the rates being tested, the concentration of active ingredient or acid equivalent in the formulation, and a 12 mL application volume at a rate of 187 L/ha.
(§5) For treatments comprised of formulated compounds, measured amounts of compounds were placed individually in 25 mL glass vials and diluted in a volume of 1.25% (v/v) Agri-Dex® crop oil concentrated to obtain 12× stock solutions. […] Application solutions were prepared by adding an appropriate amount of each stock solution (e.g., 1 mL) and diluted to the appropriate final concentrations with the addition of 10 mL of an aqueous mixture of 1.25% (v/v) crop oil concentrate so that the final spray solutions contained 1.25+/−0.05% (v/v) crop oil concentrate.
(§6) All stock solutions and applications solutions were visually inspected for compound compatibility prior to application. Spray solutions were applied to the plant material with an overhead Mandel track sprayer equipped with an 8002E nozzle calibrated to deliver 187 L/ha over an application area of 0.503 m^2 at a spray height of 18 to 20 inches (46 to 50 cm) above average plant canopy height. Control plants were sprayed in the same manner with the solvent blank.
(§7) The treated plants and control plants were placed in a greenhouse as described above and watered by sub-irrigation to prevent wash-off of the test compounds. After approximately 3 weeks, the condition of the test plants as compared with that of the untreated plants was determined visually and scored on a scale of 0 to 100 percent where 0 corresponds to no injury or growth inhibition and 100 corresponds to complete kill.
(§8) Colby's equation was used to determine the herbicidal effects expected from the mixtures (Colby, S. R. 1967. Calculation of the synergistic and antagonistic response of herbicide combinations. Weeds 15:20-22.).
(§9) The following equation was used to calculate the expected activity of mixtures containing two active ingredients, A and B: Expected=A+B−(A×B/100)

[2] = system: BRAPP (Brachiaria platyphylla (Griseb.) Nash, broadleaf signalgrass); assay: as above
Text: as §1, §2, §3, §4, §5, §6, §7, §8, §9

[3] = system: IPOHE (Ipomoea hederacea Jacq., ivyleaf morningglory); assay: as above
Text: as §1, §2, §3, §4, §5, §6, §7, §8, §9

[4] = system: LEFCH (Leptochloa chinensis (L.) Nees, Chinese sprangletop); assay: as above
Text: as §1, §2, §3, §4, §5, §6, §7, §8, §9

[5] = system: ECHCG (Echinochloa crusgalli (L.) Beauv., barnyardgrass); assay: In-water applied herbicidal mixtures, transplanted paddy rice, greenhouse (Example II); conditions: Diclosulam 6.62 gai/ha
Method: (§10) Weed seeds or nutlets of the desired test plant species were planted in puddled soil (mud) prepared by mixing a shredded, non-sterilized mineral soil (50.5 percent silt, 25.5 percent clay, and 24 percent sand, with a pH of about 7.6 and an organic matter content of about 2.9 percent) and water at a 1:1 volumetric ratio. The prepared mud was dispensed in 365 mL aliquots into 16-ounce (oz.) non-perforated plastic pots with a surface area of 86.59 square centimeters (cm^2) leaving a headspace of 3 centimeters in each pot. Mud was allowed to dry overnight prior to planting or transplanting. Rice seeds were planted in Sun Gro MetroMix® 306 planting mixture, which typically has a pH of 6.0 to 6.8 and an organic matter content of about 30 percent, in plastic plug trays. Seedlings at the second or third leaf stage of growth were transplanted into 840 mL of mud contained in 32-oz. non-perforated plastic pots with a surface area of 86.59 cm^2 4 days prior to herbicide application. The paddy was created by filling the headspace of the pots with 2.5 to 3 cm of water. When required to ensure good germination and healthy plants, a fungicide treatment and/or other chemical or physical treatment was applied. The plants were grown for 4-22 days in a greenhouse with an approximate 14 h photoperiod which was maintained at about 29′C during the day and about 26° C. during the night. Nutrients were added as Osmocote® (19:6:12, N:P:K+minor nutrients) at 2 g per 16-oz. pot and 4 g per 32-oz. pot. Water was added on a regular basis to maintain the paddy flood, and supplemental lighting was provided with overhead metal halide 1000-Watt lamps as necessary. The plants were employed for testing when they reached the first through fourth true leaf stage.
(§11) Treatments consisted of the acid or esters of 4-amino-3-chloro-5-fluoro-6-(4-chloro-2-fluoro-3-methoxy-phenyl)pyridine-2-carboxylic acid (compound A) each formulated as an SC and various herbicidal components alone and in combination. Forms of compound A were applied on an acid equivalent basis.
(§12) Other herbicidal components were applied on an active ingredient basis and included acetolactate synthase (ALS)-inhibiting herbicides (sulfonamide chemical class) penoxsulam formulated as Grasp® SC (GF-443), diclosulam formulated as Strongarm®, and cloransulam-methyl formulated as FirstRate®.
(§13) Treatment requirements for each compound or herbicidal component were calculated based upon the rates being tested, the concentration of active ingredient or acid equivalent in the formulation, an application volume of 2 mL per component per pot, and an application area of 86.59 cm^2 per pot.
(§14) For formulated compounds, a measured amount was placed in an individual 100 or 200 mL glass vial and was dissolved in a volume of 1.25% (v/v) Agri-Dex® crop oil concentrate to obtain each application solution.
(§15) Applications were made by injecting with a pipetter appropriate amounts of the application solutions, individually and sequentially, into the aqueous layer of the paddy. Control plants were treated in the same manner with the solvent blank. Applications were made so that all treated plant material received the same concentrations of acetone and crop oil concentrate.
(§16) The treated plants and control plants were placed in a greenhouse as described above and water was added as needed to maintain a paddy flood. After approximately 3 weeks the condition of the test plants as compared with that of the untreated plants was determined visually and scored on a scale of 0 to 100 percent where 0 corresponds to no injury or growth inhibition and 100 corresponds to complete kill.
as §8, §9

[6] = system: CYPRO (Cyperus rotundus L., purple nutsedge); assay: as above
Method: as §10, §11, §12, §13, §14, §15, §16, §8, §9

[7] = system: CYPIR (Cyperus iria L., rice flatsedge); assay: Postemergence foliar-applied herbicidal mixtures, direct seeded rice, greenhouse (Example I)
Text: as §1, §2, §3, §4, §5, §6, §7, §8, §9

[8] = system: CIRAR (Cirsium arvense (L.) Scop., Canada thistle); assay: Postemergence foliar-applied herbicidal mixtures, cereal crops, greenhouse (Example III); conditions: Pyroxsulam 3.75 gai/ha, visual score 0 to 100 percent after 20-22 days
Method: Seeds of the desired test plant species were planted in Sun Gro MetroMix® 306 planting mixture, which typically has a pH of 6.0 to 6.8 and an organic matter content of about 30 percent, in plastic pots with a surface area of 103.2 square centimeters (cm^2). […] The plants were grown for 7-36 days in a greenhouse with an approximate 14 hour photoperiod which was maintained at about 18° C. during the day and about 17° C. during the night. Nutrients and water were added on a regular basis and supplemental lighting was provided with overhead metal halide 1000-Watt lamps as necessary. The plants were employed for testing when they reached the second or third true leaf stage.
Treatments consisted of the benzyl ester of 4-amino-3-chloro-5-fluoro-6-(4-chloro-2-fluoro-3-methoxy-phenyl)pyridine-2-carboxylic acid (Compound A), formulated as an SC, a second cereal herbicide alone and then both in combination.
Other herbicidal components were applied on an active ingredient basis and included acetolactate synthase (ALS)-inhibiting herbicides (sulfonamide chemical class) florasulam formulated as Derby® and pyroxsulam formulated as PowerFlex®. A measured aliquot of benzyl ester of 4-amino-3-chloro-5-fluoro-6-(4-chloro-2-fluoro-3-methoxy-phenyl)pyridine-2-carboxylic acid (Compound A) was placed in 25 milliliter (mL) glass vials and diluted in a volume of 1.25% (v/v) AgriDex® crop oil concentrated to obtain a stock solution. Compound requirements are based upon a 12 mL application volume at a rate of 187 liters per hectare (L/ha). […] Formulated compounds were applied to the plant material with an overhead Mandel track sprayer equipped with an 8002E nozzle calibrated to deliver 187 L/ha over an application area of 0.503 square meters (m^2) at a spray height of 18 inches (46 cm) above average plant canopy. Control plants were sprayed in the same manner with the solvent blank.
The treated plants and control plants were placed in a greenhouse as described above and watered by sub-irrigation to prevent wash-off of the test compounds. After 20-22 days, the condition of the test plants as compared with that of the control plants was determined visually and scored on a scale of 0 to 100 percent where 0 corresponds to no injury and 100 corresponds to complete kill.
as §8, §9

[9] = Compound A n-Butyl Ester 4.38 gae/ha
[10] = Compound A n-Butyl Ester 8.75 gae/ha
[11] = Compound A n-Butyl Ester 17.5 gae/ha

For `CCCCOC(=O)c1nc(-c2ccc(Cl)c(OC)c2F)c(F)c(N)c1Cl` [Compound A n-Butyl Ester], which “Visual Weed Control (%) - 27 DAA ECHCG Obs” value [1, 9] is on record?
Its value is 0%.

And the “Visual Weed Control (%) - 27 DAA ECHCG Obs” value [1, 10]?
Its value is 0%.

What about the “Visual Weed Control (%) - 27 DAA ECHCG Obs” value [1, 11] of the same compound?
Its value is 90%.

And the “Visual Weed Control (%) - 21 DAA BRAPP Obs” value [2, 9]?
The value was 0%.

And the “Visual Weed Control (%) - 21 DAA BRAPP Obs” value [2, 10]?
The value was 40%.

What about the “Visual Weed Control (%) - 27 DAA IPOHE Obs” value [3, 9] of the same compound?
The value was 10%.

What about the “Visual Weed Control (%) - 27 DAA IPOHE Obs” value [3, 10] of the same compound?
Its value is 10%.

And the “Visual Weed Control (%) - 27 DAA IPOHE Obs” value [3, 11]?
The value was 10%.

`CCOc1nc(F)cc2nc(S(=O)(=O)Nc3c(Cl)cccc3Cl)nn12` [Diclosulam, N-(2,6-dichlorophenyl)-5-ethoxy-7-fluoro[1,2,4]triazolo[1,5-c]pyrimidine-2-sulfonamide, reference compound] was tested. Which “Visual Weed Control (%) - 20 DAA LEFCH Obs” value ([4]; Diclosulam 6.62 gai/ha, Table 4) did it give?
The value was 0%.

And the “Visual Weed Control (%) - 20 DAA LEFCH Obs” value ([4]; Diclosulam 6.62 gai/ha, Table 5)?
Its value is 0%.

What about the “Visual Weed Control (%) - 20 DAA LEFCH Obs” value ([4]; Diclosulam 13.25 gai/ha, Table 5) of the same compound?
The value was 20%.

What about the “Visual Weed Control (%) - 21 DAA ECHCG Obs” value [5] of the same compound?
The value was 70%.

And the “Visual Weed Control (%) - 21 DAA CYPRO Obs” value ([6]; Diclosulam 6.62 gai/ha)?
Its value is 80%.

What about the “Visual Weed Control (%) - 21 DAA CYPRO Obs” value ([6]; Diclosulam 13.25 gai/ha) of the same compound?
The value was 80%.

`Cc1ccn2nc(S(=O)(=O)Nc3c(F)cccc3F)nc2n1` [Flumetsulam, N-(2,6-difluorophenyl)-5-methyl[1,2,4]triazolo[1,5-a]pyrimidine-2-sulfonamide, reference compound] was tested. Which “Visual Weed Control (%) - 22 DAA BRAPP Obs” value ([2]; Flumetsulam 6.25 gai/ha) did it give?
Its value is 30%.

And the “Visual Weed Control (%) - 22 DAA CYPIR Obs” value ([7]; Flumetsulam 6.25 gai/ha)?
Its value is 20%.

What about the “Visual Weed Control (%) - 22 DAA CYPIR Obs” value ([7]; Flumetsulam 12.5 gai/ha) of the same compound?
Its value is 55%.

And the “Visual Weed Control (%) - 22 DAA CYPIR Obs” value ([7]; Flumetsulam 25 gai/ha)?
The value was 30%.

How did the “Visual Weed Control (%) - 22 DAA LEFCH Obs” value ([4]; Metosulam 6.25 gai/ha) turn out when `COc1cc(OC)n2nc(S(=O)(=O)Nc3c(Cl)ccc(C)c3Cl)nc2n1` [Metosulam, N-(2,6-dichloro-3-methylphenyl)-5,7-dimethoxy[1,2,4]triazolo[1,5-a]pyrimidine-2-sulfonamide, reference compound] was run?
Its value is 15%.

With `COc1cc(OC)n2nc(NS(=O)(=O)c3c(C(F)(F)F)ccnc3OC)nc2n1` [Pyroxsulam, N-(5,7-dimethoxy[1,2,4]triazolo[1,5-a]pyrimidin-2-yl)-2-methoxy-4-(trifluoromethyl)-3-pyridinesulfonamide, reference compound] as the compound, how does the “CIRAR Obs” value [8] read?
Its value is 60%.
